Measured values published in patent US20260168988A1, “GENETICALLY ENCODED REPORTER EXPRESSION SYSTEMS AND METHODS OF MAKING AND USING SAME” (Duke University, priority 2021, published 2026).
“Also recorded” adds a separate entry of the source.

Experiments:
Format in all cases: cell-based
[1] = molecular target: T1, METTL3 (Homo sapiens, UniProt Q86U44); experiment: m6A sensor system in HEK293T cells treated with METTL3 inhibitor; details: HEK293T cells expressing the m6A sensor system, after treatment
T1 construct: endogenous in cells; host or cells: HEK293T

[2] = tested on: NMD; experiment: m6A reporter mRNA levels after blocking nonsense-mediated decay (RT-qPCR); details: HEK293T cells expressing the m6A sensor system, CHX for 24 h
Method: HEK293T cells expressing the m6A sensor system were treated with CHX for 24 h to inhibit NMD, followed by RT-qPCR of the m^6A reporter mRNA.
The possibility that the m^6A reporter mRNA could be susceptible to nonsense-mediated decay (NMD), since editing of the m6A reporter mRNA produces premature stop codons, was investigated. However, this is unlikely since most NMD requires the presence of the exon junction complex (EJC), and the m^6A reporter transcript lacks introns.

[3] = tested on: METTL3; experiment: m6A sensor system in METTL3 degron cells treated with auxin; details: METTL3 degron HEK293T cells, auxin 48 hours, compared to DMSO-treated cells
Method: To confirm that the m^6A sensor is METTL3-dependent, the m^6A sensor system was expressed in HEK293T cells which contain an auxin-inducible degradation tag at the endogenous METTL3 locus (METTL3 degron cells). Cells were treated with auxin for 48 hours and then transfected with the m^6A sensor system. […] Conversely, overexpression of METTL3 causes increased GFP fluorescence, a higher GFP:GFP-DHFR ratio, and increased C-to-U editing of the sensor sequence (FIGS. 5A-5C).

[4] = tested on: APO1-YTH; experiment: Inducible APO1-YTH expression in HEK293T stable m6A reporter cell lines; details: time courses of dox induction
From the text: HEK293T stable cells were generated which express both the m^6A reporter and APO1-YTH. The m^6A reporter was constitutively expressed from the CMV reporter, while APO1-YTH was inducibly expressed after treatment of cells with doxycycline (dox).
Cyclophilin A (CycloA) is shown as a loading control.
Another embodiment of the present disclosure provides stable cell lines that express the m^6A reporter system as provided herein. To do this, stable cell lines expressing both the m^6A reporter and APO1-YTH were generated by transfecting HEK293T cells with a dual-promoter plasmid encoding both components of the reporter system. This plasmid drives m^6A reporter expression from the CMV promoter and APO1-YTH expression using an inducible […] promoter. However, any dual-promoter system could also be used and different promoters (inducible and constitutive) could also be used with this m^6A reporter system. The m^6A reporter system provided herein may also be applied in other mammalian and non-mammalian cell types as well.
Following selection of stable cells with puromycin resistance which was conferred by genomic integration of the plasmid, it was next sought to confirm that the reporter system works in the context of stable integration of the m^6A reporter and APO1-YTH components. […]

T1 sequence (Q86U44 2-580 limits assumed): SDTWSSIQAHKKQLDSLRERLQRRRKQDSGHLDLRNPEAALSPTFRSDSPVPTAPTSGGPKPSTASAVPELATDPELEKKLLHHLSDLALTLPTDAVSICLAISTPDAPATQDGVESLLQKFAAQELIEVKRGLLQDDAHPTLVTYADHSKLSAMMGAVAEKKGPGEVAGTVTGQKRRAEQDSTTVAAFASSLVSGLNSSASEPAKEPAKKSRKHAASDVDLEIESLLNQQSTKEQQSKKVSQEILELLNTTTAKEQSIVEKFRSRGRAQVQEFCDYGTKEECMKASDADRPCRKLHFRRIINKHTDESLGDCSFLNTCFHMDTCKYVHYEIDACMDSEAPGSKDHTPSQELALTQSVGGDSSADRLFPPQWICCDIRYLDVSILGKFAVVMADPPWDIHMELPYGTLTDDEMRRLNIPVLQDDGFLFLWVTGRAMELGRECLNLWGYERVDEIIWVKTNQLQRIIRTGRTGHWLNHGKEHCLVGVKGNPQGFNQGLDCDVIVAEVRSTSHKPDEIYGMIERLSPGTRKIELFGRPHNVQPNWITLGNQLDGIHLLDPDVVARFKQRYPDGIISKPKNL
T1 sequence (Q9HCE5 whole entry partner): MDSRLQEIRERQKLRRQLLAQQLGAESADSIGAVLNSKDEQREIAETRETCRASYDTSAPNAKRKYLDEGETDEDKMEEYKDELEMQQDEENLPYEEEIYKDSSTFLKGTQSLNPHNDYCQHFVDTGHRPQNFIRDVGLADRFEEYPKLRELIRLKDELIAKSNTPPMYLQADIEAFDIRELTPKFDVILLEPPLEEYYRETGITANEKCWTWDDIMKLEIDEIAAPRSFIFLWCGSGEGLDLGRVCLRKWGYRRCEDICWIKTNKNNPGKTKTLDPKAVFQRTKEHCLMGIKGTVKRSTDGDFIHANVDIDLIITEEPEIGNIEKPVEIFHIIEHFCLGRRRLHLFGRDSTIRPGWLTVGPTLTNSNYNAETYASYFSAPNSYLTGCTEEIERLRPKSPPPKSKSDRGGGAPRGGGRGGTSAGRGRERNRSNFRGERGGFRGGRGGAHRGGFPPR

## STM2457
[1]
  C-to-U editing of the m6A sensor sequence (RT-PCR/Sanger sequencing): lower levels of C-to-U editing; also recorded: reduced C-to-U editing
  GFP fluorescence of m6A sensor system: reduces GFP fluorescence
  GFP protein (Western blot): reduced GFP protein; also recorded: reduction of GFP expression

## C[C@@H]1C[C@@H]([C@H](O)CC2CC(=O)NC(=O)C2)C(=O)[C@@H](C)C1 [cycloheximide]
[2]
  levels of the m6A reporter mRNA (RT-qPCR): did not cause changes

## O=C(O)Cc1c[nH]c2ccccc12 [auxin]
[3]
  C-to-U editing of the m6A sensor sequence (RT-PCR/Sanger sequencing): decreased C-to-U editing
  GFP:GFP-DHFR ratio (western blot): reduced GFP:GFP-DHFR ratio
[3]; listed as Auxin
  C-to-U editing of the m6A sensor sequence (RT-PCR/Sanger sequencing): reduced C-to-U editing
[3]; then transfected, assessed 24 hours later
  GFP fluorescence of m6A sensor: greatly diminished; also recorded: reduced m^6A sensor fluorescence

## C[C@H]1c2cccc(O)c2C(=O)C2=C(O)[C@]3(O)C(=O)C(C(N)=O)=C(O)[C@@H](N(C)C)[C@@H]3[C@@H](O)[C@@H]21 [doxycycline]
[4]
  duration of dox treatment sufficient for APO1-YTH induction and EGFP fluorescence: 24 h
